Test results as given in ChEMBL document CHEMBL2016449, “Discovery of a novel chemotype of potent human ENaC blockers using a bioisostere approach. Part 2: α-Branched quaternary amines” (Bioorg Med Chem Lett, 2012).

Assays:
[1] = Blockade of human ENaC expressed in HBE cells by short-circuit current assay; type: cell-based
Cavia porcellus [2] = test: Blockade of ENaC in intratracheally dosed Dunkin Hartley guinea pig tracheal potential difference model after 1 hr; type: functional; conditions: inhaled or nasal
Cavia porcellus [3] = test: Ratio of amiloride ED50 to compound ED50 for blockade of ENaC in intratracheally dosed Dunkin Hartley guinea pig; type: functional
[4] = Blockade of guinea pig ENaC expressed in FRT cells by short-circuit current assay; type: cell-based; conditions: Cavia porcellus
BE = test: Ratio of amiloride IC50 to compound IC50 for human ENaC expressed in HBE cells; type: cell-based

| Structure (SMILES) | IC50 [1] [nM] | further results |
| --- | --- | --- |
| CCCC[C@@H](CNC(=O)c1nc(Cl)c(N)nc1N)[N+](C)(C)C | 59 |  |
| CCC[C@H](CNC(=O)c1nc(Cl)c(N)nc1N)[N+](C)(C)C | 290 |  |
| CCC[C@@H](CNC(=O)c1nc(Cl)c(N)nc1N)[N+](C)(C)C.[I-] | 30 | ED50 (Cavia porcellus [2]): 1 µg/kg; Ratio ED50 (Cavia porcellus [3]): 16; IC50 [4]: 30 nM; Ratio IC50 (BE): 10 |
| CCC[C@@H](CNC(=O)c1nc(Cl)c(N)nc1N)[N+](C)(C)CCCc1ccc(OC)cc1 | 4 |  |
| N/C(=N\C(=O)c1nc(Cl)c(N)nc1N)NCCCCc1ccc(OCC(O)CO)cc1 (configuration not stated) [552-02 FREE BASE] | 2 | ED50 (Cavia porcellus [2]): 0.2 µg/kg; IC50 [4]: 4 nM |
| CC(C)(CNC(=O)c1nc(Cl)c(N)nc1N)[N+](C)(C)C | > 30000 |  |
| C[N+](C)(C)[C@H](CNC(=O)c1nc(Cl)c(N)nc1N)Cc1ccccc1 | 170 |  |
| N=C(N)NC(=O)c1nc(Cl)c(N)nc1N [AMILORIDE] | 220 | ED50 (Cavia porcellus [2]): 16 µg/kg; IC50 [4]: 540 nM |

Further lines, with some results ahead:

| IC50 [1] [nM] | Structure (SMILES) | further results |
| --- | --- | --- |
| 8090 | C[C@@H](CNC(=O)c1nc(Cl)c(N)nc1N)[N+](C)(C)C |  |
| 2390 | CC(C)[C@@H](CNC(=O)c1nc(Cl)c(N)nc1N)[N+](C)(C)C |  |
| 19500 | CC(C)[C@H](CNC(=O)c1nc(Cl)c(N)nc1N)[N+](C)(C)C |  |
| 510 | CC[C@H](CNC(=O)c1nc(Cl)c(N)nc1N)[N+](C)(C)C |  |
| > 10000 | C[C@H](CNC(=O)c1nc(Cl)c(N)nc1N)[N+](C)(C)C |  |
| 750 | CC[C@@H](CNC(=O)c1nc(Cl)c(N)nc1N)[N+](C)(C)C |  |
